Activity calls are given as the source filed them. How the calls were made is not given here.
Each molecule was assayed against Peptidyl-prolyl cis-trans isomerase FKBP1A (Homo sapiens) (UniProt P62942) (assay: small-molecule binding to FKBP12 – biophysical, NMR detection (AID 608)). Settings: purified FKBP12.
Sequence of Peptidyl-prolyl cis-trans isomerase FKBP1A (Homo sapiens) (P62942 whole entry, looked up): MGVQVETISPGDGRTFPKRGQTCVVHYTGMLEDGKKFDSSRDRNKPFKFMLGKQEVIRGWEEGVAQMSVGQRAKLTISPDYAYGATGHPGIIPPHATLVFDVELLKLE

| Structure (SMILES) | Kd |
| --- | --- |
| Nc1ccccc1N1CCOCC1 | > 4 mM (inactive) |
| CC(C)=CCc1c(O)cc2oc(C)cc(=O)c2c1O | > 4 mM (inactive) |
| COc1cc2ccc(=O)oc2c(OC)c1OC | > 4 mM (inactive) |
| Oc1ccc(C(=S)N2CCCCC2)cc1Cl | > 4 mM (inactive) |
| O=C1Nc2ccc(S(=O)(=O)NCCO)c3cccc1c23 | > 4 mM (inactive) |
| C[C@@H]1CC[C@@]2(NC1)O[C@H]1C[C@H]3C4CC=C5C[C@@H](O)CC[C@]5(C)C4CC[C@]3(C)C1[C@@H]2C (some centres undefined) | > 4 mM (inactive) |
| O=c1ccc2ccc(O)cc2o1 | > 4 mM (inactive) |
| CNC(=O)c1c(O)c2ccccc2[nH]c1=O | > 4 mM (inactive) |
| OCCCc1nc2ccccc2[nH]1 | > 4 mM (inactive) |
| NCc1ccccc1N1CCOCC1 | > 4 mM (inactive) |
| O=c1[nH]cc(S(=O)(=O)Nc2ccccc2)c(=O)[nH]1 | > 4 mM (inactive) |
| COC(=O)C1=CCCN(C)C1 | > 4 mM (inactive) |
| COc1ccc(-c2coc3c(OC)c(OC)cc(O)c3c2=O)cc1 | > 4 mM (inactive) |
| O=C(Nc1ccccc1N1CCCC1)c1cccnc1 | > 4 mM (inactive) |
| Oc1ccc2nonc2c1 | > 4 mM (inactive) |
| CC(C)CCCC(C)[C@H]1CCC2C3CC[C@H]4CC(=O)CC[C@]4(C)C3CC[C@@]21C (some centres undefined) | > 4 mM (inactive) |
| CC(=O)N1CN(C(C)=O)CN(C(C)=O)C1 | > 4 mM (inactive) |
| CN1C(=O)c2ccc(C(=O)NC3CCCCC3)cc2C1=O | > 4 mM (inactive) |
| CC1CN(Cc2ccccn2)CCC1=O (centres undefined) | > 4 mM (inactive) |
| O=C(c1ccc(Cl)c(F)c1F)N1CCCC1 | > 4 mM (inactive) |
| N#Cc1ccccc1CSc1ccccn1 | > 4 mM (inactive) |
| Cc1ccc(S(=O)(=O)/N=C2\NC(=O)CS2)cc1 | > 4 mM (inactive) |
| COc1ccc2c(c1)c1n[nH]c(=S)nc1n2C | > 4 mM (inactive) |
| COCc1nn2c(N)c(C#N)cnc2c1-c1ccccc1 | > 4 mM (inactive) |

| Structure (SMILES) | Kd |
| --- | --- |
| NC(=O)CSc1ccc2nnc(-c3cccs3)n2n1 | > 4 mM (inactive) |
| CN1CCN(c2ccc(C(=O)O)cc2)CC1 | > 4 mM (inactive) |
| Cc1ccc(C(=O)Nc2nnc(-c3ccncc3)s2)o1 | > 4 mM (inactive) |
| CC(=O)O[C@H]1C(=O)[C@@]2(C)C([C@H](OC(=O)c3ccccc3)[C@]3(O)C[C@H](OC(=O)[C@H](O)[C@@H](NC(=O)c4ccccc4)c4ccccc4)C(C)=C1C3(C)C)[C@]1(OC(C)=O)CO[C@@H]1C[C@@H]2O (some centres undefined) | > 4 mM (inactive) |
| O=C1CSC(=NC(=O)c2ccccc2)N1 | > 4 mM (inactive) |
| CNC(=S)Nc1ncn(Cc2cccc(F)c2)n1 | > 4 mM (inactive) |
| O=C1CS/C(=N/N=C/c2cccs2)N1 | > 4 mM (inactive) |
| O=C(CSc1ccnc(=O)[nH]1)NCc1ccccc1 | > 4 mM (inactive) |
| Cc1ccc2c(c1)CC[C@H]1CC(=O)CC[C@]21C | > 4 mM (inactive) |
| CC(=O)Nc1cnn(Cc2ccc(Br)cc2)c1 | > 4 mM (inactive) |
| Nc1ccnc(C(=O)O)c1 | > 4 mM (inactive) |
| O=C(Nc1cccc(Cl)c1Cl)c1ccccc1OCC(=O)N1CCOCC1 | > 4 mM (inactive) |
| Clc1ccc(SCCn2cncn2)cc1 | > 4 mM (inactive) |
| COC(=O)c1ccccc1C | > 4 mM (inactive) |
| NC(=O)CCn1cnc2ccccc21 | > 4 mM (inactive) |
| O=C(Nc1ccccc1C(F)(F)F)c1cnccn1 | > 4 mM (inactive) |
| Nc1ccc2c(c1)COc1ccccc1O2 | > 4 mM (inactive) |
| O=C(CS(=O)(=O)c1ccccc1)Nc1nccs1 | > 4 mM (inactive) |
| COc1ccc2c(c1O)-c1c(OC)c(OC)cc3c1[C@H](C2)N(C)CC3 | > 4 mM (inactive) |
| Nc1cccc(S(=O)(=O)N2CCCC2)c1 | > 4 mM (inactive) |
| [O-][n+]1c2ccccc2[n+]([O-])c2cc(O)ccc21 | > 4 mM (inactive) |
| CP(C)(=O)CCC(=O)O | > 4 mM (inactive) |
| CC1(C)C(=O)N(O)C(C)(C)C(=O)N1O | > 4 mM (inactive) |
| CC(=O)CC1(O)C(=O)Nc2ccccc21 (centres undefined) | > 4 mM (inactive) |

| Structure (SMILES) | Kd |
| --- | --- |
| O=C(c1ccco1)N1CCN(Cc2cccc(F)c2)CC1 | > 4 mM (inactive) |
| c1cnc(N2CCSCC2)nc1 | > 4 mM (inactive) |
| Cn1[nH]c(C(F)(F)F)cc1=O | > 4 mM (inactive) |
| Cc1c(C(=O)Nn2cnnc2)oc2ccccc12 | > 4 mM (inactive) |
| CCCCCC1C(=O)CCC1CC(=O)O (centres undefined) | > 4 mM (inactive) |
| Cc1noc(-c2ccccc2)c1C(=O)O | > 4 mM (inactive) |
| Cc1nc2nc(COc3ccccc3)nn2c(C)c1Cl | > 4 mM (inactive) |
| CC12CC[C@H](CC1=O)C2(C)C | > 4 mM (inactive) |
| O=C(O)CCC1NCC2CC1CN1CCCCC21 (centres undefined) | > 4 mM (inactive) |
| O=C(/C=C/c1ccccc1)c1ccc(O)cc1 | > 4 mM (inactive) |
| O=c1/c(=C/c2ccccc2F)sc2ncnn12 | > 4 mM (inactive) |
| Nc1ccccc1-c1nc2ccccc2[nH]1 | 0.286 mM |
| CC1(C)Cc2nc3[nH]c(=S)[nH]c(=O)c3cc2CO1 | > 4 mM (inactive) |
| Cc1ccn(S(=O)(=O)c2ccc(F)cc2)n1 | > 4 mM (inactive) |
| Cc1c(C)c2c(c(C)c1O)CCC(C)(CCCC(C)CCCC(C)CCCC(C)C)O2 (centres undefined) | > 4 mM (inactive) |
| O=C(Nc1ccncc1)c1cncc(Br)c1 | > 4 mM (inactive) |
| O=C(COc1cc(Cl)c(Cl)cc1Cl)N1CCOCC1 | inactive |
| NCc1cccc2nsnc12 | > 4 mM (inactive) |
| O=C(O)C1CN2CCC1CC2 (centres undefined) | > 4 mM (inactive) |
| C(=N\c1nccs1)/c1cccnc1 | > 4 mM (inactive) |
| O=C(Cn1c(-c2cscn2)nc2ccccc21)Nc1ccc(Oc2ccc(F)cc2)cc1 | > 4 mM (inactive) |
| C/C=C(/C)C(=O)O[C@H]1CC[C@@]2(C)[C@@H]3CC[C@H]4[C@]5(O)C[C@H](O)[C@@]6(O)[C@@H](CN7C[C@@H](C)CC[C@H]7[C@@]6(C)O)[C@]5(O)C[C@@]42OC13O | > 4 mM (inactive) |
| COc1ccc(C)cc1S(=O)(=O)N1CCCCC1 | > 4 mM (inactive) |
| O=C1CN(C(=O)c2ccccc2F)c2ccccc2N1 | > 4 mM (inactive) |

| Structure (SMILES) | Kd |
| --- | --- |
| c1coc(-c2nc(-c3ccncc3)no2)c1 | > 4 mM (inactive) |
| CN1CCN(C(=O)Nc2cccc3ccccc23)CC1 | > 4 mM (inactive) |
| NC(=O)c1ccc(SCC(=O)O)c([N+](=O)[O-])c1 | > 4 mM (inactive) |
| O=C(c1ccncc1)c1ccc(Br)cc1 | > 4 mM (inactive) |
| CCNC(=S)NS(=O)(=O)c1ccccc1 | > 4 mM (inactive) |
| CNc1nc(N)c(C(=O)C(C)(C)C)s1 | > 4 mM (inactive) |
| COC(=O)c1cccc(Cn2nnc3ccccc3c2=O)c1 | > 4 mM (inactive) |
| Cn1ncc(C(=O)O)c1-c1ccccc1 | > 4 mM (inactive) |
| CNC(=O)C1CCCN(S(C)(=O)=O)C1 (centres undefined) | > 4 mM (inactive) |
| CNS(=O)(=O)c1cccs1 | > 4 mM (inactive) |
| c1csc(-c2nn[nH]n2)c1 | > 4 mM (inactive) |
| Cc1c(N=CN(C)C)c(=O)n(-c2ccccc2)n1C | > 4 mM (inactive) |
| OCc1ccc2c(c1)OCCCO2 | > 4 mM (inactive) |
| CC(=O)N1CCn2c3c(c(=O)c4cc(C)ccc42)CCC31 (centres undefined) | > 4 mM (inactive) |
| O=C(Nc1cccnc1)c1cccs1 | > 4 mM (inactive) |
| CC(=O)NC(=S)Nc1ccc(S(N)(=O)=O)cc1 | > 4 mM (inactive) |
| CC1(C)CC[C@]2(C)CC[C@]3(C)C(=CCC4[C@@]5(C)CC[C@H](O)C(C)(C)C5CC[C@]43C)C2C1 (some centres undefined) | > 4 mM (inactive) |
| CC1(C)Cc2cccc(C(=O)O)c2O1 | > 4 mM (inactive) |
| Cc1nc(-c2cccc(N)c2)cs1 | > 4 mM (inactive) |
| O=C(Nc1ccccc1)c1cccc(N2C(=O)CCC2=O)c1 | > 4 mM (inactive) |
| O=C(Nc1ccc2c(c1)OCO2)c1cccs1 | > 4 mM (inactive) |
| O=C1c2ccccc2C(=O)N1CCc1ccccn1 | > 4 mM (inactive) |
| CC(C)NC(=O)c1cc(-n2cnnc2)ccc1Cl | > 4 mM (inactive) |
| CC1=C(CCC(=O)O)c2cc3nc(cc4[nH]c(cc5[nH]c(cc1n2)c(C)c5C(C)O)c(C)c4C(C)O)C(C)=C3CCC(=O)O (centres undefined) | > 4 mM (inactive) |

| Structure (SMILES) | Kd |
| --- | --- |
| COC(=O)c1c(C)cc(OC(=O)c2c(C)cc(O)c(C=O)c2O)c(C)c1O | > 4 mM (inactive) |
| Cc1csc(NC(=O)c2cccs2)n1 | > 4 mM (inactive) |
| c1ccc(Cc2nnc3sc(-c4cccnc4)nn23)cc1 | > 4 mM (inactive) |
| Cc1cn2c(-c3cccnc3)nnc2s1 | > 4 mM (inactive) |
| NC(=O)c1cccc(N2C(=O)C=CC2=O)c1 | > 4 mM (inactive) |
| CN(C)c1ccc2c(=O)[nH][nH]c(=O)c2c1 | > 4 mM (inactive) |
| CC(=O)N1CC2(C)CN(C(C)=O)CC(C)(C1)C2O (centres undefined) | > 4 mM (inactive) |
| C=C1C(=O)O[C@@H]2C3OC3(C)CC/C=C(\C)CC[C@@H]12 (some centres undefined) | > 4 mM (inactive) |
| CC(=O)NC(=S)Nc1ccccc1C | > 4 mM (inactive) |
| Cc1nc(N2CCOCC2)[nH]c(=O)c1C | > 4 mM (inactive) |
| OCc1ccc2nsnc2c1 | > 4 mM (inactive) |
| CC[C@H](CCC(C)[C@H]1CCC2C3CCC4C[C@@H](O)CC[C@]4(C)C3CC[C@@]21C)C(C)C (some centres undefined) | > 4 mM (inactive) |
| CCN1CCN(c2ncnc3c2nnn3C)CC1 | > 4 mM (inactive) |
| COC(=O)C[C@H]1C(C)(C)C(=O)[C@@H]2CC3=C(CC[C@]4(C)C3=CC(=O)O[C@H]4c3ccoc3)C1(C)C2=O | > 4 mM (inactive) |
| CCSc1nc(C)c(CC)c(C)c1C(N)=O | > 4 mM (inactive) |
| Cc1cc(C)c(-c2cc(C(F)(F)F)no2)c(=O)[nH]1 | > 4 mM (inactive) |
| Cc1sc2nc(SCC(=O)N(C)C)[nH]c(=O)c2c1C | > 4 mM (inactive) |
| O=C(NCc1ccccc1)c1ccc[n+]([O-])c1 | > 4 mM (inactive) |
| CC(=O)Nc1cccs1 | > 4 mM (inactive) |
| CC(=O)c1ccc(-n2ccnc2)cc1 | > 4 mM (inactive) |
| COc1cc2occc2c2oc(=O)ccc12 | > 4 mM (inactive) |
| Nc1cccc2nonc12 | > 4 mM (inactive) |
| OC1CC2CCC1C2 (centres undefined) | > 4 mM (inactive) |

— PubChem BioAssay AID608 (Sanford-Burnham Center for Chemical Genomics, 2007)
